Experimental data reported in PubChem BioAssay (NCI).
Values joined by “and” are separate entries in the source; they are usually repeats but may differ in a detail not shown here. Equal entries are not always repeated.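 Interpolation was linear, between the two tested concentrations surrounding the appropriate level; five concentrations were tested over 48 hours in 96-well plates. The concentration for 50% growth inhibition is given as GI50. TGI: concentration producing complete growth inhibition.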

Tests used:
Assay in all cases: DTP human tumour cell line panel, 48 h
UO-31 renal = system: UO-31 renal
PC-3 prostate = system: PC-3 prostate
CAKI-1 renal = system: CAKI-1 renal
OVCAR-5 ovarian = system: OVCAR-5 ovarian
HCC-2998 colon = system: HCC-2998 colon
TK-10 renal = system: TK-10 renal
NCI-H522 lung = system: NCI-H522 lung
SK-MEL-2 melanoma = system: SK-MEL-2 melanoma
NCI-H460 lung = system: NCI-H460 lung
HOP-92 NSCLC = system: HOP-92 NSCLC

SMILES | GI50 (UO-31 renal) | TGI (UO-31 renal) | GI50 (PC-3 prostate) [µM] | TGI (PC-3 prostate) | GI50 (CAKI-1 renal) [µM] | TGI (CAKI-1 renal) | GI50 (OVCAR-5 ovarian) | TGI (OVCAR-5 ovarian) | GI50 (HCC-2998 colon) | TGI (HCC-2998 colon) | GI50 (TK-10 renal) | TGI (TK-10 renal) | GI50 (NCI-H522 lung) | TGI (NCI-H522 lung) | GI50 (SK-MEL-2 melanoma) | TGI (SK-MEL-2 melanoma) | GI50 (NCI-H460 lung) | TGI (NCI-H460 lung) | GI50 (HOP-92 NSCLC) | TGI (HOP-92 NSCLC)
C#Cc1cccc(Nc2ncnc3ccc(-c4cnc(N)nc4)cc23)c1 | 0.515 µM | 7.75 µM | 1.62 | 11.3 µM | 1.09 | 4.93 µM | 1.33 µM | 14.6 µM | 5.14 µM | 23.4 µM | 0.286 µM | 3.2 µM | 2.11 µM | 11.8 µM | 2.11 µM | 5.72 µM | 2.95 µM | 14 µM | 0.211 µM | 3.15 µM
CSc1nc(SC)c2c(C)c(Br)[nH]c2n1 |  | > 100 µM |  | > 100 µM |  | > 100 µM |  | > 100 µM |  | > 100 µM |  | > 100 µM |  | > 100 µM |  | > 100 µM |  | > 100 µM |  | > 100 µM
CN(C)C[C@@H]1CCn2cc(c3ccccc32)C2=C(C(=O)NC2=O)c2cn(c3ccccc23)CCO1 | 0.539 µM | 3.23 µM | 1.77 | > 10 µM | 1.36 | > 10 µM | 1.34 µM | > 10 µM | 0.713 µM | > 10 µM | 2.22 µM | > 10 µM | 0.763 µM | 7.31 µM | 2 µM | > 10 µM | 1.48 µM | 5.73 µM | 0.446 µM | 6.31 µM
CC1OC(OC2C(O)C(OCCc3ccc(O)c(O)c3)OC(CO)C2OC(=O)/C=C/c2ccc(O)c(O)c2)C(O)C(O)C1O (centres undefined) | 23.7 µM | 57.6 µM | > 100 | > 100 µM | 40 | > 100 µM | 19.6 µM | 39 µM | 19 µM | 35.6 µM | > 100 µM | > 100 µM | > 100 µM | > 100 µM | > 100 µM | > 100 µM | > 100 µM | > 100 µM | > 100 µM | > 100 µM
CC(=O)OCC1OC([S-])C(OC(C)=O)C(OC(C)=O)C1OC(C)=O.[Au+].c1ccc(CN2[CH-]N(Cc3ccccc3)C(c3ccccc3)=C2c2ccccc2)cc1 | 1.83 µM and 0.445 µM | 4.31 µM and 1.99 µM |  | 4.73 µM and 1.17 µM | 0.866 | 3.37 µM | 3.35 µM and 0.783 µM | 11.9 µM and 3.1 µM | 1.64 µM and 0.625 µM | 3.34 µM and 1.9 µM | 2.66 µM and 0.796 µM | 8.34 µM and 3.8 µM | 2.03 µM and 0.551 µM | 4.7 µM and 1.56 µM | 2.77 µM and 0.656 µM | 8.11 µM and 2.2 µM | 3.71 µM and 0.732 µM | 15.5 µM and 2.42 µM |  | 3.93 µM and 0.437 µM
CCCCCCCCCCCCSC1=CC(=O)C=CC1=O | 0.578 µM | 2.54 µM | 0.672 | 4.21 µM | 3.26 | 24.2 µM | 11.8 µM | > 42 µM | 15.2 µM | > 50 µM | 16.3 µM | 37.4 µM | 0.191 µM | 0.763 µM | 7.5 µM | 19.4 µM | 13.9 µM | > 50 µM | 2.56 µM | 12.6 µM
CC(C)c1ccc(C(c2c(O)c3ccccc3oc2=O)c2c(O)c3ccccc3oc2=O)cc1 |  | 28.4 µM |  | 37.9 µM |  | 46.5 µM |  | 37.4 µM |  | 35.2 µM |  | 68 µM |  | 45.6 µM |  | 30.8 µM |  | 37.6 µM |  | 21.2 µM
COc1ccc(-c2nsc3c2NC(=O)CC3c2cccc(F)c2)cc1 (centres undefined) | > 100 µM | > 100 µM | 4.93 | > 100 µM | 4.69 | > 100 µM | 7.86 µM | > 100 µM | 7.18 µM | > 100 µM | 5.26 µM | > 100 µM | 3.39 µM | > 100 µM | 3.3 µM | 9.19 µM | 3.63 µM | > 100 µM | 3.57 µM | 40.6 µM
COC1/C=C/OC2(C)Oc3c(C)c(O)c4c(O)c(c(/C=N/N(c5ccccc5)c5ccccc5)c(O)c4c3C2=O)NC(=O)C(C)=C/C=C/C(C)C(O)C(C)C(O)C(C)C(OC(C)=O)C1C (centres undefined) | 3.02 µM | 12 µM | 1.27 | 4.95 µM | 2.42 | 11.2 µM | 2.07 µM | 10.9 µM | 1.71 µM | 6.16 µM | 1.8 µM | 7.55 µM | 0.983 µM | 2.19 µM | 1.84 µM | 7.14 µM | 1.52 µM | 5.32 µM | 0.867 µM | 2.86 µM
CN(C)c1ccc2cc3c(cc2c1)Oc1ccccc1N3.[Cl][Zn][Cl] | 1.44 µM | 3.3 µM | 3.54 | 14.1 µM | 2.91 | 10.3 µM | 1.96 µM | 6.35 µM | 16.5 µM | 31.8 µM | 6.2 µM | 16.5 µM | 1.94 µM | 4.94 µM | 9.65 µM | 31.3 µM | 20.1 µM | 52.2 µM | 2.59 µM | 8.33 µM
CN(CO)c1nc(N(C)CO)nc(N(C)CO)n1 | 27.6 µM | 50.3 µM and 56.2 µM |  | 45.6 µM and 51.3 µM | 26.9 | 77.4 µM and 65.7 µM |  | 63 µM and > 73.8 µM | 27.9 µM and 25.5 µM | 67.8 µM and 52.4 µM |  | 82.9 µM and 77.4 µM |  | 43.9 µM and 53.7 µM | 15.5 µM and 5.47 µM | 32.1 µM and 11.2 µM | 17.2 µM and 13.9 µM | 43.6 µM and 42.8 µM | 29.9 µM and 27.3 µM | 64.9 µM and 64.1 µM
O=C1c2c(c3c4ccccc4n(CCCCCCN4CCOCC4)c3c3[nH]c4ccccc4c23)C(=O)N1O | 1.25 µM | 3.11 µM | 12.1 | > 57 µM | 8.98 | 28.9 µM | > 49.3 µM | > 75.8 µM | 9.6 µM | 32.1 µM | 26.2 µM | 54.8 µM | 1.58 µM | 4.15 µM | 19.5 µM | 46 µM | 1.81 µM | 3.66 µM | 13.2 µM | 38.3 µM
Cc1cc2oc(=O)cc(OC/C=C3/CCC(=O)O3)c2cc1C | 1.49 µM | 4.88 µM | 1.74 | 11.4 µM | 3.59 | 17.7 µM | 8.7 µM | 22.9 µM | 15.4 µM | 31 µM | 2 µM | 8.34 µM | 1.4 µM | 2.97 µM | 3.41 µM | 16.1 µM | 6.6 µM | 32.5 µM | 1.65 µM | 10.6 µM
CCc1nc(N)nc(N)c1-c1ccc(N(C)Cc2ccccc2)c([N+](=O)[O-])c1 |  | 16 µM |  | 16.6 µM |  | 25.4 µM |  | 32.9 µM |  | 8.73 µM |  | 34.2 µM |  | 14.6 µM |  | 20 µM |  | 8.72 µM |  | 18.7 µM
O=[N+]([O-])c1cc(C(F)(F)F)cc2n[se]nc12 |  | 14.1 µM |  | 8.32 µM |  | 9 µM |  | 26.4 µM |  | 10.2 µM |  | 8.47 µM |  | 6.54 µM |  | 22.7 µM |  | 26.6 µM |  | 5.1 µM
O=c1oc2ccc(I)cc2c(=O)n1-c1ccc(I)cc1F | 0.268 µM | 2.41 µM | 2.23 | 7.35 µM | 0.308 | 2.53 µM | 3.93 µM | > 100 µM | 2.8 µM | 11.1 µM | 1.42 µM | 11.8 µM | 0.327 µM | 4.52 µM | 0.391 µM | 2.55 µM | 0.429 µM | 10.3 µM | 0.169 µM | 0.544 µM
Cc1cnc(-c2ccc(-c3ccc(NC(=O)Nc4cccc(C(F)(F)F)c4)cc3F)c3c2C(=O)NC3)[nH]1 | 3 µM | > 50.5 µM | 15.7 | > 50.6 µM | 2.18 | > 44.9 µM | 28.4 µM | > 59.8 µM | 28.2 µM | > 59.2 µM | 15.5 µM | > 58.5 µM | 15.4 µM | 42.7 µM | 14.9 µM | 36.8 µM | 0.304 µM | 26.8 µM | 0.438 µM | 28.6 µM
